Conditions: rat, in vivo
Procedure: Female Sprague-Dawley rats (Harlan Sprague-Dawley, Indianapolis, Ind.), weighing 250-300 grams each were given free access to food and water before the experiment. The animals were anesthetized with ketamine (80 mg/kg) and xylazine (10 mg/kg). Brain temperatures were monitored using a rectal thermometer. The animals' body temperature was maintained at 37° C. by using a water-jacketed heating pad. Brain temperature was monitored for 1 hour prior to injury to 6 hours following injury and was recorded at 30-minute intervals.
Young adult female Sprague-Dawley rats received a spinal cord contusion using the Precision Systems and Instrumentation, LLC (Fairfax Station, Va.) pneumatic impactor. Prior to surgery, rats were assigned to different treatment groups based on a randomized block design so that on any given surgery day all treatment groups were included. The rats were anesthetized with ketamine (80 mg/.kg) and xylazine (10 mg/kg) before laminectomy was performed at the 10th thoracic vertebra (T10). The vertebral column was stabilized with angled clamps on the upper thoracic (T8) and lumber (T11) levels and the impactor with a tip diameter of 2 mm was delivered at approximately 150 kdynes onto the exposed, intact dura overlying the dorsal spinal cord. The impactor was immediately removed, the wound irrigated with saline and the muscle and skin openings sutured together.
Two hours following injury, 0.8% magnesium in 3350 formulations was administered by intravenous infusion of 5 mL/kg over a 30-min period. For repeated infusions, an interval of 6 hours was used between infusions and the right jugular vein was cannulated with PE 50 tubing. The cannula was secured through the back of the neck and capped between infusion periods. Animals were re-anesthetized for re-administration of compounds. The contents of the infusion vials were blinded to the investigators performing both the infusions and the analyses.
At various time points after infusion, cerebrospinal fluid and/or blood samples and/or spinal cord tissue with and without the injury site were collected. […]
Serum and CSF samples were analyzed for magnesium concentrations by the Clinical Pathology Department at WIL Research Laboratories, LLC, 1407 George Road, Ashland, Ohio 44805. […] The formation of the chromophore (and consequently a reduction of the xylidyl blue) is proportional to the concentration of Mg^2+, measured by the instrument as a decrease in the xylidyl blue absorbance (600 nm). […]
Tissue and plasma concentrations of PEG-3350 in rat plasma were measured using a validated high performance liquid chromatograpy tandem mass spectrometry (HPLC/MS/MS) method in positive electrospray ionization mode. […] The samples were analyzed with an HPLC/MS/MS assay using a Thermo Hypersil ODS column. […]

Row | time for Magnesium serum level to decrease to baseline level post-infusion [min] | time at which Cmax of Magnesium serum level was observed (iv) | time for PEG plasma level to decrease to baseline level post-infusion [min] | time at which Cmax of PEG plasma level was observed (iv) | Compound
1 | 30 to 60 | at the end of the infusion |  |  | [Mg+2] [Magnesium, magnesium]
2 |  |  | 30 to 60 | at the end of the infusion | polyethylene glycol [PEG]
